These results are taken from ChEMBL document CHEMBL5223185, “Squaramide Tethered Clindamycin, Chloroquine, and Mortiamide Hybrids: Design, Synthesis, and Antimalarial Activity” (ACS Med Chem Lett, 2023).

Square brackets hold non-standard residues; d marks the D form. Peptide text beside a SMILES is read from it.

The nature of data set [1]: Fold resistance,ratio of IC50 for antiplasmodial activity against chloroquine, mefloquine and pyrimethamine resistant plasmodium falciparum Dd2 to IC50 for antiplasmodial activity against plasmodium falciparum 3D7. Type of data set: functional.
Data set [2] concerns Plasmodium falciparum. Briefly: Antiplasmodial activity against sorbitol-synchronized post ring stage chloroquine, mefloquine and pyrimethamine resistant plasmodium falciparum Dd2 assessed as inhibition of parasite growth incubated for 72 to 96 hrs by parasite susceptibility based microplate reader assay. Type of data set: functional, organism-based.
Data set [3] concerns Plasmodium falciparum. Briefly: Antiplasmodial activity against sorbitol-synchronized post ring stage plasmodium falciparum 3D7 assessed as inhibition of parasite growth incubated for 72 to 96 hrs by parasite susceptibility based microplate reader assay. Type of data set: functional, organism-based.
Data set [4] in a line: Hemolytic activity in human RBC assessed as hemolysis at 0.39 to 12.8 uM incubated for 72 hrs by microplate reader assay. Particulars: erythrocyte, dose 0.39-12.8 µM. Type of data set: toxicity, cell-based.

Take `CCC[C@@H]1CC(C(=O)N[C@@H](C2O[C@H](SC)[C@H](O)[C@@H](O)[C@H]2O)[C@@H](C)Nc2c(NCCN(CC)CCCC(C)Nc3ccnc4cc(Cl)ccc34)c(=O)c2=O)N(C)C1` (some centres not stated): the Ratio in data set [1] stood at 7.8. The IC50 (usually the midpoint of a concentration-inhibition curve) was found to be 1010 nM in the data set on Plasmodium falciparum [2] and 129 nM with Plasmodium falciparum [3]. Also, the Activity entry in data set [4] is recorded as “Non-Toxic”.
With `CC[C@@H](C)[C@H]1NC(=O)[C@@H](C)NC(=O)[C@H](Cc2ccccc2)NC(=O)[C@@H](CC(C)C)NC(=O)[C@@H](C(C)C)NC(=O)[C@H](Cc2ccccc2)NC(=O)[C@@H]([C@H](C)CC)NC1=O` (cyclo(F[dA][dI][dI]F[dV][dL])), the Ratio in data set [1] is 0.7. In addition, the IC50 worked out at 940 nM with Plasmodium falciparum [2] and 1310 nM in the data set on Plasmodium falciparum [3].
In the case of `CCC[C@@H]1C[C@@H](C(=O)N[C@@H]([C@H]2O[C@H](SC)[C@H](O)[C@@H](O)[C@H]2O)[C@@H](C)N=[N+]=[N-])N(C)C1`, the Ratio in data set [1] is 1. Moreover, the IC50 in the data set on Plasmodium falciparum [2] worked out at 28.6 nM; in the data set on Plasmodium falciparum [3], 29.4 nM. Also, in data set [4], the Activity result is listed as “Non-Toxic”.
For `CCC[C@@H]1C[C@@H](C(=O)N[C@@H]([C@H]2O[C@H](SC)[C@H](O)[C@@H](O)[C@H]2O)[C@H](C)Cl)N(C)C1` [CLINDAMYCIN], in the data set with Plasmodium falciparum [3], the IC50 was 8.81 nM.
As for `CCN(CCCC(C)Nc1ccnc2cc(Cl)ccc12)CCNc1c(NCCCC[C@H](NC(C)=O)C(=O)OC)c(=O)c1=O` (some centres not stated), in data set [1], the Ratio came to 3. Moreover, the values for the IC50 with Plasmodium falciparum [2] and in the data set with Plasmodium falciparum [3] were 680 nM and 223 nM, respectively. Further, in data set [4], the Activity result is listed as “Non-Toxic”.
On the same counts, the results for `CCOc1c(NCCN(CC)CCCC(C)Nc2ccnc3cc(Cl)ccc23)c(=O)c1=O` (configuration not stated) are 16.6, 1060 nM, 63.8 nM and “Non-Toxic”.
As for `CCN(CCN)CCCC(C)Nc1ccnc2cc(Cl)ccc12` (configuration not stated), the Ratio in data set [1] was determined as 17.1. Moreover, the IC50 with Plasmodium falciparum [2] stood at 285 nM; with Plasmodium falciparum [3] it was 16.7 nM. In addition, in data set [4], the Activity result was “Non-Toxic”.
As for `CCN(CCCC(C)Nc1ccnc2cc(Cl)ccc12)CCNc1c(NCCN(CC)CCCC(C)Nc2ccnc3cc(Cl)ccc23)c(=O)c1=O` (configuration not stated), the Ratio in data set [1] was found to be 2.6. For the same compound, the IC50 was found to be 80.9 nM with Plasmodium falciparum [2] and 31.3 nM with Plasmodium falciparum [3]. In addition, in data set [4], the Activity entry is listed as “Non-Toxic”.
Regarding `CCN(CCCC(C)Nc1ccnc2cc(Cl)ccc12)CCN=[N+]=[N-]` (configuration not stated), the Ratio in data set [1] worked out at 6.5. Also, the IC50 came out at 18 nM in the data set on Plasmodium falciparum [2] and 2.8 nM in the data set on Plasmodium falciparum [3]. In addition, the Activity result in data set [4] is recorded as “Non-Toxic”.
